Broadly, the IC50 is the concentration that inhibits the measured activity by half.

These results are taken from patent US4315032A, “Process for preparation of adjacently disubstituted ketones” (Teitin Limited, priority 1979, dated 1982).

Structures are written as SMILES. Like-named read-outs stand apart in the source and are kept apart here. Some results are limits rather than exact numbers.

For assay [1], the system named is platelet aggregation (rabbit PRP). The experiment in a line: Activity of Inhibiting Platelet Aggregation In Vitro (rabbit PRP, ADP). The assay is classed as cell-based. The conditions noted are these: ADP-disodium salt 5 μM final, 37° C., 2 min pre-incubation, minimum concentration whose inhibiting rate exceeded 50%. As for the experimental part:
The platelet aggregation inhibiting activities of test compounds including 7-hydroxy PGE1 of this invention were tested using rabbit PRP. The results are shown in terms of their concentrations at 50% inhibition (IC50) of platelet aggregation. As an aggregating agent, ADP-disodiumsalt having a final concentration of 5 μM was used.
(1) Preparation of platelet-enriched plasma (PRP)
Citrated blood (consisting of 1 part by volume of […] sodium citrate and 9 parts by volume of the blood) was prepared by taking blood from the ear veins of male rabbits having a body weight of 2.0 to 3.0 kg (white ordinary species). The citrated blood was centrifuged at 100 G for 10 minutes at room temperature, and the supernatant (PRP) was separated.
The PRP obtained was stored at room temperature, and used as early as possible. PRP stored for more than 4 hours after preparation was not used.
(2) Preparation of test drugs
Each test drug was dissolved in ethyl alcohol to a concentration of 10 mg/ml or 1 mg/ml, and diluted with physiological saline to adjust its concentration.
(3) Preparation of the aggregating agent
ADP disodium salt (a product of Kyowa Hakko Kabushiki Kaisha) was dissolved in 0.1 M tris-HCl buffer (pH 7.8) to prepare a solution having a concentration of 50 μM (final concentration 5 μM).
(1) Degree of platelet aggregation in a blank
Physiological saline (25 μl) and 25 μl of the aggregating agent solution were added to 200 μl of PRP which had been warmed in a cuvette at 37° C. of an aggregometer to aggregate platelet. The aggregation curve was recorded for 3 minutes by an aggregometer (a product of Rika Denki Kabushiki Kaisha). The maximum degree of aggregation in this platelet aggregation was defined as the maximum degree of aggregation of the blank.
(2) Test for inhibition of platelet aggregation
The solution of test drug (25 μl) was added to 200 of PRP, and the mixture was pre-incubated for 2 minutes in a cuvette of an aggregometer. Then, 25 μl of the ADP disodium solution (50 μM) was added, and the aggregation curve was recorded for 3 minutes. The maximum degree of platelet aggregation within this period was measured, and the inhibiting rate was calculated from the following equation. The mimimum concentration (expressed as final concentration) of the drug whose inhibiting rate exceeded 50% was shown as an IC50 value. [formula]
For details of the in vitro platelet aggregation inhibiting test, see H. M. Davis, J. Phyllis, K. Paul and W. Terry: Thromb. Res. 11, 217-226 (1977) and R. E. Anderson and J. G. Foulks: Thromb. Haemos. 36, 343-359 (1976).

Assay [2] deals with ulcer formation induced by indomethacin. The experiment in a line: inhibiting action on the formation of ulcer in rats induced by indomethacin. The class given is in vivo, Male rats (Sprague Dawley species). The conditions noted are these: indomethacin 20 mg/kg peroral, compound 0.5 × 2 mg/kg, S.C.; for Inhibiting rate (%): inhibition of ulcer formation. As for the experimental part:
By the method of Y. H. Lee et al. [Arch. Int. Pharmacodyn. Ther., 192, 370 (1971)], the inhibiting action of the compound No. 122 in Example 11 and compound No. 158 in Example 21 on the formation of ulcer in rats induced by indomethacin, a typical non-steroid anti-inflammatory agent, was evaluated.
Male rats (Sprague Dawley species; body weight 240-270 g) were used in the experiment. These rats had been caused to fast for 24 hours in separate cages before the initiation of the experiment. Indomethacin was orally administered to these rats, and 6 hours later, they were killed. Formation of ulcer in the fundus part was examined by measuring the area of the ulcer-forming part under a microscope. The compounds Nos. 122 and 158 were each subcutaneously administered at the end of 30 minutes and 2 hours, respectively, after the administration of indomethacin. The ulcer formation inhibiting rate of these compounds against a predetermined dose of indomethacin was determined.
The indomethacin was administered as a 0.5 ml aqueous suspension (containing two drops of a Tween-type nonionic surfactant per 14 ml of water). The compounds Nos. 122 and 158 were given in the form of a solution in a phosphate buffer (pH 7.4).

`CCCCC[C@H](O)/C=C/C1C(C(O)CCCCCC(=O)OC)C(=O)C[C@H]1O` (stereo partly drawn) [No. 156, 2-(1-hydroxy-7-keto-8-oxanonyl)-3-[3(S)-hydroxy-1-trans-octenyl]-4(R)-hydroxycyclopentanone]: in assay [1] (Oryctolagus cuniculus, Platelet, read-out: IC50), the IC50 amounted to 26.3 µg/mL.

Take `CCCCCC(O)/C=C/C1C(O)CC(=O)C1C(O)CCCCCC(=O)OC` (stereo not drawn) [No. 144, dl 2-(1-hydroxy-7-keto-8-oxanonyl)-3-(3-hydroxy-1-trans-octenyl)-4-hydroxycyclopentanone]: in assay [1], the IC50 was above 10 µg/mL.

As to `CCCCCC(O)/C=C/C1C(O)CC(=O)C1C(O)CCCCCC(=O)OC` (stereo not drawn) [No. 150, dl 2-(1-hydroxy-7-keto-8-oxanonyl)-3-(3-hydroxy-1-trans-octenyl)-4-hydroxycyclopentanone], the IC50 in assay [1] is above 10 µg/mL.

As for `CCCCCC(O)/C=C/C1C(O)CC(=O)C1C(O)CCCCCC(=O)OC` (stereo not drawn) [No. 146, dl 2-(1-hydroxy-7-keto-8-oxanonyl)-3-(3-hydroxy-1-trans-octenyl)-4-hydroxycyclopentanone], the IC50 in assay [1] turned out to be 24.5 µg/mL.

As for `CCCCC[C@H](O)/C=C/C1C(C(O)CCCCCC(=O)OC)C(=O)C[C@H]1O` (stereo partly drawn) [No. 158, 2-(1-hydroxy-7-keto-8-oxanonyl)-3-[3(S)-hydroxy-1-trans-octenyl]-4(R)-hydroxycyclopentanone], in assay [1], the IC50 was determined as 41.5 µg/mL. Moreover, in assay [2], the “Ulcer formation (ulcer coefficient) Average value ± S.E.M.” value was 15.8 ± 5.1 and the “Inhibiting rate (%)” value worked out at 22.2%.

With `CCCCCC(O)/C=C/C1C(O)CC(=O)C1C(O)CCCCCC(=O)OC` (stereo not drawn) [No. 148, dl 2-(1-hydroxy-7-keto-8-oxanonyl)-3-(3-hydroxy-1-trans-octenyl)-4-hydroxycyclopentanone], the IC50 in assay [1] was above 10 µg/mL.

In the case of `CCCCCC(O)/C=C/C1C(O)CC(=O)C1C(O)CCCCCC(=O)OC` (stereo not drawn) [No. 122, 2-(1-hydroxy-7-keto-8-oxanonyl)-3-(3-hydroxy-1-trans-octenyl)-4-hydroxycyclopentanone], in assay [2], the “Ulcer formation (ulcer coefficient) Average value ± S.E.M.” value was determined as 12.1 ± 4.1 and the “Inhibiting rate (%)” value is listed as 40.4%.
